From patent US20180334436A1 (VIIV HEALTHCARE UK LIMITED, priority 2015, published 2018)
pIC50: −log10 of the molar value.

What follows are compounds tested on HIV (assay: MT4 assay (anti-HIV activity)). Settings: Human immunodeficiency virus 1, 96 h, antiviral HIV activity in HTLV-1 transformed cell line MT-4; luciferase read 96 hours later; 10 point dose response.
Format: cell-based
Method: Antiviral HIV activity and cytotoxicity values for compounds of the invention from Table 1 were measured in parallel in the HTLV-1 transformed cell line MT-4 based on the method previously described (Hazen et al., 2007, In vitro antiviral activity of the novel, tyrosyl-based human immunodeficiency virus (HIV) type 1 protease inhibitor brecanavir (GW640385) in combination with other antiretrovirals and against a panel of protease inhibitor-resistant HIV (Hazen et al., “In vitro antiviral activity of the novel, tyrosyl-based human immunodeficiency virus (HIV) type 1 protease inhibitor brecanavir (GW640385) in combination with other antiretrovirals and against a panel of protease inhibitor-resistant HIV”, Antimicrob. Agents Chemother. 2007, 51: 3147-3154; and Pauwels et al., “Sensitive and rapid assay on MT-4 cells for the detection of antiviral compounds against the AIDS virus”, J. of Virological Methods 1987, 16: 171-185).
Luciferase activity was measured 96 hours later by adding a cell titer glo (Promega, Madison, Wis.). Percent inhibition of cell protection data was plotted relative to no compound control. Under the same condition, cytotoxicity of the compounds was determined using cell titer Glo™ (Promega, Madison, Wis.). IC50s were determined from a 10 point dose response curve using 3-4-fold serial dilution for each compound, which spans a concentration range >1000 fold.
These values are plotted against the molar compound concentrations using the standard four parameter logistic equation:
y=((Vmax*x̂n)/(K̂n+x̂n))+Y2
Y2=minimum y n=slope factor
Vmax=maximum y x=compound concentration [M]
`Cc1ccc(-c2c(C)c3c(c(C)c2[C@H](OC(C)(C)C)C(=O)O)CCN(C2CCCCC2)C3)cc1` [Example 29, (S)-2-(tert-Butoxy)-2-(2-cyclohexyl-5,8-dimethyl-7-(p-tolyl)-1,2,3,4-tetrahydroisoquinolin-6-yl)acetic Acid] showed a pIC50 of 7.89. For `Cc1ccc(-c2c(C)c3c(c(C)c2[C@H](OC(C)(C)C)C(=O)O)CCN(Cc2cccc(F)c2)C3)cc1` [Example 30, (S)-2-(tert-Butoxy)-2-(2-(3-fluorobenzyl)-5,8-dimethyl-7-(p-tolyl)-1,2,3,4-tetrahydroisoquinolin-6-yl)acetic Acid], the pIC50 was 6.42. In the case of `Cc1ccc(-c2c(C)c3c(c(C)c2[C@H](OC(C)(C)C)C(=O)O)CCN(CC2CCCCC2)C3)cc1` [Example 31, (S)-2-(tert-Butoxy)-2-(2-(cyclohexylmethyl)-5,8-dimethyl-7-(p-tolyl)-1,2,3,4-tetrahydroisoquinolin-6-yl)acetic Acid], the pIC50 was 7.30. Compound `Cc1ccc(-c2c(C)c3c(c(C)c2[C@H](OC(C)(C)C)C(=O)O)CCN(C2CCCC2)C3)cc1` [Example 32, (S)-2-(tert-Butoxy)-2-(2-cyclopentyl-5,8-dimethyl-7-(p-tolyl)-1,2,3,4-tetrahydroisoquinolin-6-yl)acetic Acid] has a pIC50 of 7.02. `Cc1ccc(-c2c(C)c3c(c(C)c2[C@H](OC(C)(C)C)C(=O)O)CCN(CC(C)(C)C)C3)cc1` [Example 33, (S)-2-(tert-Butoxy)-2-(5,8-dimethyl-2-neopentyl-7-(p-tolyl)-1,2,3,4-tetrahydroisoquinolin-6-yl)acetic Acid] was tested, and the pIC50 was 7.43. Compound `Cc1ccc(-c2c(C)c3c(c(C)c2[C@H](OC(C)(C)C)C(=O)O)CCN(CCc2ccccc2)C3)cc1` [Example 34, (S)-2-(tert-Butoxy)-2-(5,8-dimethyl-2-phenethyl-7-(p-tolyl)-1,2,3,4-tetrahydroisoquinolin-6-yl)acetic Acid] has a pIC50 of 6.78. In the case of `Cc1ccc(-c2c(C)c3c(c(C)c2[C@H](OC(C)(C)C)C(=O)O)CCN(C(=O)NC2CCCCC2)C3)cc1` [Example 35, (S)-2-(tert-Butoxy)-2-(2-(cyclohexylcarbamoyl)-5,8-dimethyl-7-(p-tolyl)-1,2,3,4-tetrahydroisoquinolin-6-yl)acetic Acid], the pIC50 was 6.44. `Cc1ccc(-c2c(C)c3c(c(C)c2[C@H](OC(C)(C)C)C(=O)O)CCN(c2ccccc2)C3)cc1` [Example 36, (S)-2-(tert-Butoxy)-2-(5,8-dimethyl-2-phenyl-7-(p-tolyl)-1,2,3,4-tetrahydroisoquinolin-6-yl)acetic Acid] showed a pIC50 of 6.83. Work on `Cc1ccc(-c2c(C)c3c(c(C)c2[C@H](OC(C)(C)C)C(=O)O)CN(C(=O)CC2CCCCC2)CC3)cc1` [Example 37, (S)-2-(tert-butoxy)-2-(2-(2-cyclohexylacetyl)-5,8-dimethyl-6-(p-tolyl)-1,2,3,4-tetrahydroisoquinolin-7-yl)acetic Acid] yielded a pIC50 of 6.93. `Cc1ccc(-c2c(C)c3c(c(C)c2[C@H](OC(C)(C)C)C(=O)O)CCN(S(=O)(=O)N2CCCCC2)C3)cc1` [Example 38, (S)-2-(tert-butoxy)-2-(5,8-dimethyl-2-(piperidin-1-ylsulfonyl)-7-(p-tolyl)-1,2,3,4-tetrahydroisoquinolin-6-yl)acetic Acid] gave a pIC50 of 7.64. With `Cc1ccc(-c2c(C)c3c(c(C)c2[C@H](OC(C)(C)C)C(=O)O)CCN(CCC2CCCCC2)C3)cc1` [Example 39, (S)-2-(tert-butoxy)-2-(2-(2-cyclohexylethyl)-5,8-dimethyl-7-(p-tolyl)-1,2,3,4-tetrahydroisoquinolin-6-yl)acetic Acid] the pIC50 was 6.65. Work on `Cc1ccc(-c2c(C)c3c(c(C)c2[C@H](OC(C)(C)C)C(=O)O)CCN(C2CCC(C)(C)CC2)C3)cc1` [Example 40, (S)-2-(tert-butoxy)-2-(2-(4,4-dimethylcyclohexyl)-5,8-dimethyl-7-(p-tolyl)-1,2,3,4-tetrahydroisoquinolin-6-yl)acetic Acid] yielded a pIC50 of 7.96. `Cc1ccc(-c2c(C)c3c(c(C)c2[C@H](OC(C)(C)C)C(=O)O)CCN(S(=O)(=O)c2ccccc2)C3)cc1` [Example 41, (S)-2-(tert-butoxy)-2-(5,8-dimethyl-2-(phenylsulfonyl)-7-(p-tolyl)-1,2,3,4-tetrahydroisoquinolin-6-yl)acetic Acid] gave a pIC50 of 6.86. `Cc1ccc(-c2c(C)c3c(c(C)c2[C@H](OC(C)(C)C)C(=O)O)CCN(C(=O)c2ccccn2)C3)cc1` [Example 42, (S)-2-(tert-butoxy)-2-(5,8-dimethyl-2-picolinoyl-7-(p-tolyl)-1,2,3,4-tetrahydroisoquinolin-6-yl)acetic Acid] was tested, and the pIC50 was 5.94. For `Cc1ccc(-c2c(C)c3c(c(C)c2[C@H](OC(C)(C)C)C(=O)O)CCN(C(=O)c2cccnc2)C3)cc1` [Example 43, (S)-2-(tert-butoxy)-2-(5,8-dimethyl-2-nicotinoyl-7-(p-tolyl)-1,2,3,4-tetrahydroisoquinolin-6-yl)acetic Acid], the pIC50 was 6.20. `Cc1ccc(-c2c(C)c3c(c(C)c2[C@H](OC(C)(C)C)C(=O)O)CCN(C(=O)c2ccncc2)C3)cc1` [Example 44, (S)-2-(tert-butoxy)-2-(2-isonicotinoyl-5,8-dimethyl-7-(p-tolyl)-1,2,3,4-tetrahydroisoquinolin-6-yl)acetic Acid] gave a pIC50 of 5.99. `Cc1ccc(-c2c(C)c3c(c(C)c2[C@H](OC(C)(C)C)C(=O)O)CCN(S(=O)(=O)C2CCCCC2)C3)cc1` [Example 45, (S)-2-(tert-butoxy)-2-(2-(cyclohexylsulfonyl)-5,8-dimethyl-7-(p-tolyl)-1,2,3,4-tetrahydroisoquinolin-6-yl)acetic Acid] was tested, and the pIC50 was 7.77. `Cc1ccc(-c2c(C)c3c(c(C)c2[C@H](OC(C)(C)C)C(=O)O)CCN(C(=O)C(=O)N2CCCCC2)C3)cc1` [Example 46, (S)-2-(tert-butoxy)-2-(5,8-dimethyl-2-(2-oxo-2-(piperidin-1-yl)acetyl)-7-(p-tolyl)-1,2,3,4-tetrahydroisoquinolin-6-yl)acetic Acid] was tested, and the pIC50 was 6.56. With `Cc1ccc(-c2c(C)c3c(c(C)c2[C@H](OC(C)(C)C)C(=O)O)CCN(C(=O)C2CCCCC2)C3)cc1` [Example 47, (S)-2-(tert-butoxy)-2-(2-(cyclohexanecarbonyl)-5,8-dimethyl-7-(p-tolyl)-1,2,3,4-tetrahydroisoquinolin-6-yl)acetic Acid] the pIC50 was 7.29. `Cc1ccc(-c2c(C)c3c(c(C)c2[C@H](OC(C)(C)C)C(=O)O)CCN(C(=O)c2ccccc2)C3)cc1` [Example 48, (S)-2-(2-benzoyl-5,8-dimethyl-7-(p-tolyl)-1,2,3,4-tetrahydroisoquinolin-6-yl)-2-(tert-butoxy)acetic Acid] showed a pIC50 of 6.49. `Cc1ccc(-c2c(C)c3c(c(C)c2[C@H](OC(C)(C)C)C(=O)O)CCN(C2CC4CCC2C4)C3)cc1` (stereo partly drawn) [Example 49, (2S)-2-(2-(bicyclo[2.2.1]heptan-2-yl)-5,8-dimethyl-7-(p-tolyl)-1,2,3,4-tetrahydroisoquinolin-6-yl)-2-(tert-butoxy)acetic Acid] was tested, and the pIC50 was 7.96. `Cc1ccc(-c2c(C)c3c(c(C)c2[C@H](OC(C)(C)C)C(=O)O)CCN(C2CCCCCC2)C3)cc1` [Example 50, (S)-2-(tert-butoxy)-2-(2-cycloheptyl-5,8-dimethyl-7-(p-tolyl)-1,2,3,4-tetrahydroisoquinolin-6-yl)acetic Acid] showed a pIC50 of 8.30. `Cc1ccc(-c2c(C)c3c(c(C)c2[C@H](OC(C)(C)C)C(=O)O)CCN(C2CCC4(CC2)CC4)C3)cc1` [Example 51, (S)-2-(tert-butoxy)-2-(5,8-dimethyl-2-(spiro[2.5]octan-6-yl)-7-(p-tolyl)-1,2,3,4-tetrahydroisoquinolin-6-yl)acetic Acid] was tested, and the pIC50 was 7.96. `Cc1ccc(-c2c(C)c3c(c(C)c2[C@H](OC(C)(C)C)C(=O)O)CCN(C2CCCC(C)(C)C2)C3)cc1` (stereo partly drawn) [Example 52, (2S)-2-(tert-butoxy)-2-(2-(3,3-dimethylcyclohexyl)-5,8-dimethyl-7-(p-tolyl)-1,2,3,4-tetrahydroisoquinolin-6-yl)acetic Acid] gave a pIC50 of 8.00. In the case of `Cc1ccc(-c2c(C)c3c(c(C)c2[C@H](OC(C)(C)C)C(=O)O)CCN(C(=O)CN2CCCCC2)C3)cc1` [Example 53, (S)-2-(tert-butoxy)-2-(5,8-dimethyl-2-(2-(piperidin-1-yl)acetyl)-7-(p-tolyl)-1,2,3,4-tetrahydroisoquinolin-6-yl)acetic Acid], the pIC50 was 6.09. For `Cc1ccc(-c2c(C)c3c(c(C)c2[C@H](OC(C)(C)C)C(=O)O)CCN(CC(=O)N2CCCCC2)C3)cc1` [Example 54, (S)-2-(tert-butoxy)-2-(5,8-dimethyl-2-(2-oxo-2-(piperidin-1-yl)ethyl)-7-(p-tolyl)-1,2,3,4-tetrahydroisoquinolin-6-yl)acetic Acid], the pIC50 was 6.51. Work on `Cc1ccc(-c2c(C)c3c(c(C)c2[C@H](OC(C)(C)C)C(=O)O)CCN(Cc2ccccc2)C3)cc1` [Example 55, (S)-2-(2-benzyl-5,8-dimethyl-7-(p-tolyl)-1,2,3,4-tetrahydroisoquinolin-6-yl)-2-(tert-butoxy)acetic Acid] yielded a pIC50 of 6.46. `Cc1ccc(-c2c(C)c3c(c(C)c2[C@H](OC(C)(C)C)C(=O)O)CCN(C2CCC(F)(F)CC2)C3)cc1` [Example 56, (S)-2-(tert-butoxy)-2-(2-(4,4-difluorocyclohexyl)-5,8-dimethyl-7-(p-tolyl)-1,2,3,4-tetrahydroisoquinolin-6-yl)acetic Acid] was tested, and the pIC50 was 7.85.
